According to patent US8329914B2, “Cyclic benzimidazole derivatives useful as anti-diabetic agents” (Merck Sharp & Dohme Corp, priority 2008, dated 2012):

Biological target: recombinant human AMPK complex 1 (containing α1β1γ1) (Homo sapiens, UniProt Q13131+Q9Y478)
Sequence (Q13131 whole entry): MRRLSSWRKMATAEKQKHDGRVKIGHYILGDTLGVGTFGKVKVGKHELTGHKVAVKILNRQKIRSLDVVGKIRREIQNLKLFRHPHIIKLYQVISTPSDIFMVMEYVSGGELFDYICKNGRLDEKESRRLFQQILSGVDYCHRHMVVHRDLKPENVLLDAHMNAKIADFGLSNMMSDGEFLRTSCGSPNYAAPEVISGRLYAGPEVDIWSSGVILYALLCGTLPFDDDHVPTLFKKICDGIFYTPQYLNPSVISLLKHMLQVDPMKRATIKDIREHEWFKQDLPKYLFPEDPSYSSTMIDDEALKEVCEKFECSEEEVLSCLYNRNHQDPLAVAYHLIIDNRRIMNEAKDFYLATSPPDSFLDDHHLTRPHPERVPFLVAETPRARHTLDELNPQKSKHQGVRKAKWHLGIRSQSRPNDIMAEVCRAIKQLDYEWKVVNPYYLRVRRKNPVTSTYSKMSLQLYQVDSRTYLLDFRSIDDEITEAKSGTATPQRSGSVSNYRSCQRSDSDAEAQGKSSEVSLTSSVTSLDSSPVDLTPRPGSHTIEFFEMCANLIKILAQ
Sequence (Q9Y478 whole entry): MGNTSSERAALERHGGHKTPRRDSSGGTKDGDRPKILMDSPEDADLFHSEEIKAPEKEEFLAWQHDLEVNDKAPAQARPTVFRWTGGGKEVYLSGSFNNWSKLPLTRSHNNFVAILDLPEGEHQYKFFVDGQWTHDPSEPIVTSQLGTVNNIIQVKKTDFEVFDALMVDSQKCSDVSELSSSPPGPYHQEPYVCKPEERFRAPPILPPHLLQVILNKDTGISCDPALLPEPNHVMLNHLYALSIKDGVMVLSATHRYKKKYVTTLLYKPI
Sequence (P54619 whole entry partner): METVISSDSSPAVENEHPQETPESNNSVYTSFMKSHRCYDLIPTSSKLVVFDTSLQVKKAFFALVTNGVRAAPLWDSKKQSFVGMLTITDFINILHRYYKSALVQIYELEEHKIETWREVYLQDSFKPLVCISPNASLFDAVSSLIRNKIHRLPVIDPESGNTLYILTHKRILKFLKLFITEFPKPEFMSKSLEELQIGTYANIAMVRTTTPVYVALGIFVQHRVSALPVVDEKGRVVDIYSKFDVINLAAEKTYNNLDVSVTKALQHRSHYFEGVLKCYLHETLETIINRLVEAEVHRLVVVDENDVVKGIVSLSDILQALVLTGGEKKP
Assay: AMPKSAMSF (in vitro AMPK activation assay)
Type: biochemical
Conditions: recombinant human AMPK complex 1 (α1β1γ1)
Description: The recombinant human AMPK complex 1 (containing α1β1γ1) was obtained from baculovirus expression system. Recombinant viruses were generated by cotransfection of AMPK/pBacPak9 clones with Baculogold baculovirus DNA (Pharmingen) in spodoptera frugiperda 21 cells according to the manufacturer's instructions. Each round of virus amplification was performed for 5 days in Grace's medium containing 10% serum. Virus that had been subjected to three rounds of amplification was used for all protein production procedures. To express the AMPK complex, sf21 cells were adapted to serum free medium (SF900 II, Invitrogen) by sequential dilution from serum containing stocks into SF900II medium and maintained in shaker flasks at 90 rpm at 27° C. The recombinant AMPK enzyme complex was produced by triple infection, one recombinant virus for each of the subunits, in sf21 cells under serum free conditions. Cells were infected in log phase, 1×10^6 cells/ml, at a multiplicity of infection of ˜5. Cells were harvested by centrifugation at 10,000×g for 15 minutes after 72 hours of infection with viruses. The insect cell pellet from 2 liters of culture was resuspended in 50 ml lysis buffer (20 mM Tris-HCl, 50 mM NaCl, 50 mM NaF, 30 mM Na PPi, 0.25 M sucrose, 10 mM ZnCl2, 2 mM DTT, 0.4 mg/ml digitonin) and subjected to two cycles of freeze-thaw lysis in a dry-ice ethanol bath. Insoluble material was removed by centrifugation at 10,000×g and the supernatant was fractionated with use of polyethylene glycol (PEG). The protein fraction precipitating between 2.5 and 6% PEG was used for further purification using a Blue-Sepharose step (Zhou et al, J. Clin Invest. 108, 1167-1174, 2001).
The total in vitro AMPK activation assay volume is 50 μl in a 96-well plate. The reaction mixture contained 100 μM ATP (0.5 μCi ^33P-ATP per reaction), and 50 μM SAMS (HMRSAMSGLHLVKRR) in a buffer (20 mM HEPES, pH 7.0, 5 mM MgCl2, 0.01% Brij35). The reaction was initiated with addition of the enzyme. After 30-minute incubation at 30° C., the reaction was stopped by addition of 80 μl 1% H3PO4. Aliquots (100 μl) were transferred to 96-well MultiScreen plates (MAPHNOB50; Millipore Corp., Bedford, Mass., USA). The plate was washed three times with 1% H3PO4 followed by detection in a Top-count. The counts per minute from the basal activity (the reaction without activator) was subtracted from each well and the data were expressed as % maximum AMP activation followed by EC50 calculation.
In the case of `O=P(O)(O)CSc1nc2cc(C#Cc3ccc(F)cc3F)c(Cl)cc2[nH]1` [Example 8], the EC50 is reported as 184 nM.
Compound `O=P(O)(O)CSc1nc2cc(-c3ccc(-c4cccnc4)cc3)c(Cl)cc2[nH]1` [Example 22, (5-chloro-6-(4-(pyridin-3-yl)phenyl)-1H-benzo[d]imidazol-2-ylthio)methyl-phosphonic acid] has an EC50 of 82 nM.
Work on `O=P(O)(O)CSc1nc2cc(-c3ccc4[nH]ccc4c3)c(Cl)cc2[nH]1` [Example 27] yielded an EC50 of 233 nM.
Work on `Cn1ccc2cc(-c3cc4nc(SCP(=O)(O)O)[nH]c4cc3Cl)ccc21` [Example 28] yielded an EC50 of 58 nM.
Work on `O=P(O)(O)CSc1nc2cc(-c3ccc(-c4ccccc4)cc3)c(Cl)cc2[nH]1` [Example 29] yielded an EC50 of 137 nM.

Same assay, conditions: recombinant human AMPK complex 1 (α1β1γ1); basal activity subtracted; read-out: % Maximum AMP Activation of human AMPK Complex 1
In the case of `O=P(O)(O)CSc1nc2cc(Cl)c(C#Cc3ccccc3)cc2[nH]1` [Example 1, (5-Chloro-6-phenylethynyl-1H-benzoimidazol-2-ylsulfanylmethyl)-phosphonic acid], the Emax is reported as over 60%.
Work on `O=P(O)(O)CSc1nc2cc(C#Cc3ccc(F)cc3)c(Cl)cc2[nH]1` [Example 2] yielded an Emax of over 60%.
`O=P(O)(O)CSc1nc2cc(C#Cc3ccc(C(F)(F)F)cc3)c(Cl)cc2[nH]1` [Example 3] showed an Emax of over 60%.
`O=P(O)(O)CSc1nc2cc(C#Cc3cccc(F)c3)c(Cl)cc2[nH]1` [Example 4] showed an Emax of over 60%.
`O=P(O)(O)CSc1nc2cc(C#Cc3ccccn3)c(Cl)cc2[nH]1` [Example 5] showed an Emax of over 60%.
With `O=P(O)(O)CSc1nc2cc(C#Cc3ccccc3F)c(Cl)cc2[nH]1` [Example 6] the Emax was over 60%.
In the case of `O=P(O)(O)CSc1nc2cc(C#Cc3ccc(CO)cc3)c(Cl)cc2[nH]1` [Example 7], the Emax is reported as over 60%.
For `O=P(O)(O)CSc1nc2cc(C#Cc3ccccc3O)c(Cl)cc2[nH]1` [Example 9], the Emax was over 60%.
Work on `O=P(O)(O)CSc1nc2cc(C#Cc3cccnc3)c(Cl)cc2[nH]1` [Example 10] yielded an Emax of over 60%.
Work on `O=P(O)(O)CSc1nc2cc(C#Cc3ccc(Cl)cc3)c(Cl)cc2[nH]1` [Example 11] yielded an Emax of over 60%.
Compound `Cc1cc(-c2cc3nc(SCP(=O)(O)O)[nH]c3cc2Cl)ccc1Cl` [Example 12, [6-Chloro-5-(4-chloro-3-methyl-phenyl)-1H-benzoimidazol-2ylsulfanylmethyl]-phosphonic acid] has an Emax of over 60%.
`CCOP(=O)(CSc1nc2cc(-c3ccc(Br)cc3)c(Cl)cc2[nH]1)OCC` [Example 13] gave an Emax of over 60%.
`CN(C)C(=O)c1ccc(-c2cc3nc(SCP(=O)(O)O)[nH]c3cc2Cl)cc1` [Example 14, [6-Chloro-5-(4-dimethylcarbamoyl-phenyl)-1H-benzoimidazol-2-ylsulfanylmethyl]-phosphonic acid] gave an Emax of over 60%.
Compound `O=P(O)(O)CSc1nc2cc(-c3ccc(Cl)c(F)c3)c(Cl)cc2[nH]1` [Example 15, [6-Chloro-5-(4-chloro-3-fluoro-phenyl)-1H-benzoimidazol-2-ylsulfanylmethyl]phosphonic acid] has an Emax of over 60%.
In the case of `O=P(O)(O)CSc1nc2cc(-c3ccc(Cl)c(Cl)c3)c(Cl)cc2[nH]1` [Example 16, [6-Chloro-5-(3,4-dichloro-phenyl)-1H-benzoimidazol-2-ylsulfanylmethyl]-phosphonic acid], the Emax is reported as over 60%.
`CSc1ccc(-c2cc3nc(SCP(=O)(O)O)[nH]c3cc2Cl)cc1` [Example 17, [6-Chloro-5-(4-methylsulfanyl-phenyl)-1H-benzoimidazol-2-ylsulfanylmethyl]-phosphonic acid] showed an Emax of over 60%.
`O=C(NC1CC1)c1cc(-c2cc3nc(SCP(=O)(O)O)[nH]c3cc2Cl)ccc1Cl` [Example 18, [6-Chloro-5-(4-chloro-3-cyclopropylcarbamoyl-phenyl)-1H-benzoimidazol-2-ylsulfanylmethyl]-phosohonic acid] gave an Emax of over 60%.
For `O=P(O)(O)CSc1nc2cc(-c3ccc(N4CCOCC4)cc3)c(Cl)cc2[nH]1` [Example 20, (5-chloro-6-(4-morpholinophenyl)-1H-benzo[d]imidazol-2-ylthio)methylphosphonic acid], the Emax was over 60%.
Work on `COc1ccc(-c2ccc(-c3cc4nc(SCP(=O)(O)O)[nH]c4cc3Cl)cc2)cn1` [Example 21, (5-chloro-6-(4-(6-methoxypyridin-3-yl)phenyl)-1H-benzo[d]imidazol-2-ylthio)methylphosphonic acid] yielded an Emax of over 60%.
In the case of `CC(C)Oc1ccc(-c2ccc(-c3cc4nc(SCP(=O)(O)O)[nH]c4cc3Cl)cc2)cc1` [Example 23, (5-chloro-6-(4′-isopropoxy-biphenyl-4-yl)-1H-benzo[d]imidazol-2-ylthio)methylphosphonic acid], the Emax is reported as over 60%.
Compound `Cc1cncc(-c2ccc(-c3cc4nc(SCP(=O)(O)O)[nH]c4cc3Cl)cc2)c1` [Example 24, (5-chloro-6-[4-(5-methyl-pyridin-3-yl)-phenyl]-1H-benzo[d]imidazol-2-ylthio)methylphosphonic acid] has an Emax of over 60%.
Work on `O=P(O)(O)CCCc1nc2cc(-c3ccc(-c4ccccc4)cc3)c(Cl)cc2[nH]1` [Example 25, [3-(5-Biphenyl-4-yl-6-chloro-1H-benzoimidazol-2-yl)-propyl]-phosphonic acid] yielded an Emax of over 60%.
`O=P(O)(O)CCc1nc2cc(-c3ccc(-c4ccccc4)cc3)c(Cl)cc2[nH]1` [Example 26, [2-(Biphenyl-4-yl-6-chloro-1H-benzoimidazol-2-yl)-ethyl]-phosphonic acid] gave an Emax of over 60%.
`O=P1(CSc2nc3cc(-c4ccc(-c5ccccc5)cc4)c(Cl)cc3[nH]2)OCCC(c2cccc(Cl)c2)O1` (centres unmarked) [Example 30, 5-Biphenyl-4-yl-6-chloro-2-[4-(3-chloro-phenyl)-2-oxo-2lambda*5*-[1,3,2]-dioxaphosphinan-2-ylmethylsulfanyl]-1H-benzoimidazole] showed an Emax of over 60%.
With `COc1ccc(COP(=O)(O)CSc2nc3cc(-c4ccc(-c5ccccc5)cc4)c(Cl)cc3[nH]2)cc1F` [Example 31, (5-Biphenyl-4-yl-6-chloro-1H-benzoimidazol-2-ylsulfanylmethyl)-phosphonic acid mono-(3-fluoro-4-methoxy-benzyl)ester] the Emax was over 60%.
In the case of `CCC(=O)SCCOP(=O)(O)CSc1nc2cc(-c3ccc(-c4ccccc4)cc3)c(Cl)cc2[nH]1` [Example 32, Thiopropionic acid S-{2-[(5-biphenyl-4-yl-6-chloro-1H-benzoimidazol-2-ylsulfanylmethyl)-hydroxy-phosphinoyloxy]-ethyl}ester], the Emax is reported as over 60%.
In the case of `CCC(=O)SCCOP(=O)(CSc1nc2cc(-c3ccc(-c4ccccc4)cc3)c(Cl)cc2[nH]1)OCCSC(=O)CC` [Example 33, Thiopropionic acid S-{2-[(5-biphenyl-4-yl-6-chloro-1H-benzoimidazol-2-ylsulfanylmethyl)-(2-propionylsulfanyl-ethoxy)-phosphinoyloxy]-ethyl}ester], the Emax is reported as over 60%.
`O=[P@]1(CSc2nc3cc(-c4ccc(-c5ccccc5)cc4)c(Cl)cc3[nH]2)OCC[C@@H](c2ccncc2)O1` [Example 34, 5-Biphenyl-4-yl-6-chloro-2-(cis{5[1-yl-(4-pyridyl)]}-1-phosphono-2,6-dioxophosphinan-2-ylmethylsulfanyl)-1H-benzoimidazole] showed an Emax of over 60%.
`O=[P@@]1(CSc2nc3cc(-c4ccc(-c5ccccc5)cc4)c(Cl)cc3[nH]2)OCC[C@@H](c2ccncc2)O1` [Example 35, 5-Biphenyl-4-yl-6-chloro-2-(trans{5[1-yl-(4-pyridyl)]}-1-phosphono-2,6-dioxophosphinan-2-ylmethylsulfanyl)-1H-benzoimidazole] gave an Emax of over 60%.
Compound `CC(C)(C)C(=O)OCOP(=O)(CSc1nc2cc(-c3ccc(-c4ccccc4)cc3)c(Cl)cc2n1COC(=O)C(C)(C)C)OCOC(=O)C(C)(C)C` [Example 36, 2,2-Dimethyl-propionic acid[5-biphenyl-4-yl-6-chloro-1-(2,2-dimethylpropionyl-oxymethyl)-1H-benzoimidazol-2-ylsulfanylmethyl]-(2,2-dimethyl-propionyl-oxymethoxy)-phosohinoyloxymethyl ester] has an Emax of over 60%.

Test system: not given
Assay: not given
Conditions: not given
`O=P(O)(O)CSc1nc2cc(Cl)c(C#Cc3ccccc3)cc2[nH]1` [Example 1, (5-Chloro-6-phenylethynyl-1H-benzoimidazol-2-ylsulfanylmethyl)-phosphonic acid] gave a melting point of 210 to 215 °C.
With `CC(C)(C)C(=O)OCOP(=O)(CSc1nc2cc(-c3ccc(-c4ccccc4)cc3)c(Cl)cc2n1COC(=O)C(C)(C)C)OCOC(=O)C(C)(C)C` [Example 36, 2,2-Dimethyl-propionic acid[5-biphenyl-4-yl-6-chloro-1-(2,2-dimethylpropionyl-oxymethyl)-1H-benzoimidazol-2-ylsulfanylmethyl]-(2,2-dimethyl-propionyl-oxymethoxy)-phosohinoyloxymethyl ester] the melting point was 210 to 215 °C.

Test system: ob/ob and db/db mice
Assay: not given
Conditions: following 8 weeks of administration; cited from earlier work
In the case of `NC(=O)c1ncn([C@@H]2O[C@H](CO)[C@@H](O)[C@H]2O)c1N` [AICAR], the blood glucose reduction is listed as 35%.
